# Patent US9828338B2, “Carbamate derivatives of lactam based N-acylethanolamine acid amidase (NAAA) inhibitors” (The Regents of the University of California, priority 2013, dated 2017)
# Target: T1, r-NAAA (Rattus norvegicus, UniProt Q5KTC7)
# T1 construct: Lysosomal NAAA protein preparation was obtained by homogenizing male Sprague-Dawley rat lungs; tissue Charles River (animals); host or cells: male Sprague-Dawley rat lung, soluble lysosomal fraction
# T1 sequence (Q5KTC7 34-362): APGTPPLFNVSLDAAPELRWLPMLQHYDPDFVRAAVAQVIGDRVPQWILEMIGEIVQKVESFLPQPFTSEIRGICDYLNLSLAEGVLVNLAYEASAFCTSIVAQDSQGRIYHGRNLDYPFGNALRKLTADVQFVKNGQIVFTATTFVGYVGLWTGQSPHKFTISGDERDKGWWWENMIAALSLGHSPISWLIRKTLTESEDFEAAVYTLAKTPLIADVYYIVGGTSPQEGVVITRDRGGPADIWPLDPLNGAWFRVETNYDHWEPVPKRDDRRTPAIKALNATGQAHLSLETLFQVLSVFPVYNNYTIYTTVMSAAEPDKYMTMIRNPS
# Experiment: UPLC/MS r-NAAA assay
# Assay type: biochemical
# Details: not given
# Protocol: Lysosomal NAAA protein preparation was obtained by homogenizing male Sprague-Dawley rat lungs (Charles River) in 20 mM Tris-HCl buffer pH 7.4 containing 0.32M sucrose. […] Supernatants were then centrifuged at 12,000 xg for 30 min at 4° C. Pellets were then resuspended in PBS pH 7.4 and subjected to a freeze/thaw cycle at −80° C. The suspension was finally centrifuged at 105,000×g for 1 h at 4° C. The supernatant was then used in the enzymatic assay.
# NAAA protein preparation was pre-incubated with various concentrations of test compounds or vehicle control in 100 mM NaH2PO4/Citrate buffer, 1% Triton-X, 3 mM DTT (pH 4.5) for 30 min at 37° C. Samples were then incubated with heptadecenoylethanolamide (50 μM, Avanti Polar Lipids) at 37° C. for 30 min. The reaction was terminated by addition of cold methanol containing heptadecanoic acid (NuCheck Prep) as internal standard. Samples were then analyzed by UPLC/MS (Acquity, Waters). […] The column temperature was 40° C. Electrospray ionization was in the negative mode, capillary voltage was 0.5 kV, cone voltage was […], desolvation temperature was 500° C. N2 was used as drying gas at a flow rate of 1000 L/hour and a temperature of 500° C. […] Calibration curves were generated using commercial heptadecenoic acid (NuCheck Prep) Inhibition of NAAA activity was calculated as reduction of heptadecenoic acid in the samples compared to vehicle controls. IC50 values were calculated by non-linear regression analysis of log [concentration]/inhibition curves using GraphPad Prism 5 (GraphPad Software Inc., CA—USA) applying a standard slope curve fitting.
row,IC50 [nM],SMILES
1,21500,"C[C@H]1NC(=O)[C@@H]1NC(=O)OCCCCC1CCCCC1 [Example 80, 4-Cyclohexylbutyl-N-[(2R,3R)-2-methyl-4-oxo-azetidin-3-yl]-carbamate]"
2,5100,"C[C@H]1NC(=O)[C@@H]1NC(=O)OCc1ccc(C2CCCCC2)cc1 [Example 82, (4-Cyclohexylphenyl)-methyl-N-[(2R,3R)-2-methyl-4-oxo-azetidin-3-yl]-carbamate]"
3,4700,"C[C@@H]1NC(=O)[C@@H]1NC(=O)OCCCCC1CCCCC1 [Example 83, 4-Cyclohexylbutyl-N-[(2S,3R)-2-methyl-4-oxo-azetidin-3-yl]-carbamate]"

# Same assay, conditions: @100 μM
row,SMILES,r-NAAA UPLC/MS assay (n.a.)
1,"C[C@H]1NC(=O)[C@@H]1NC(=O)OCc1ccc(-c2ccccc2)cc1 [Example 81, (4-Phenylphenyl)-methyl-N-[(2R,3R)-2-methyl-4-oxo-azetidin-3-yl]-carbamate]",n.a. (n.a. = <10% inhib. @100 μM)
2,"CC1(C)NC(=O)[C@H]1NC(=O)OCc1ccc(-c2ccccc2)cc1 [Example 87, (4-Phenylphenyl)-methyl-N-[(3S)-2,2-dimethyl-4-oxo-azetidin-3-yl]-carbamate]",n.a. (n.a. = <10% inhib. @100 μM)
3,"CC1(C)NC(=O)[C@H]1NC(=O)OCc1ccc(C2CCCCC2)cc1 [Example 88, (4-Cyclohexylphenyl)-methyl-N-[(3S)-2,2-dimethyl-4-oxo-azetidin-3-yl]-carbamate]",n.a. (n.a. = <10% inhib. @100 μM)
4,"CC1(C)NC(=O)[C@@H]1NC(=O)OCCCCC1CCCCC1 [Example 89, 4-Cyclohexylbutyl-N-[(3R)-2,2-dimethyl-4-oxo-azetidin-3-yl]-carbamate]",n.a. (n.a. = <10% inhib. @100 μM)
5,"CC1(C)NC(=O)[C@@H]1NC(=O)OCc1ccc(-c2ccccc2)cc1 [Example 90, (4-Phenylphenyl)-methyl-N-[(3R)-2,2-dimethyl-4-oxo-azetidin-3-yl]-carbamate]",n.a. (n.a. = <10% inhib. @100 μM)
6,"CC1(C)NC(=O)[C@@H]1NC(=O)OCc1ccc(C2CCCCC2)cc1 [Example 91, (4-Cyclohexylphenyl)-methyl-N-[(3R)-2,2-dimethyl-4-oxo-azetidin-3-yl]-carbamate]",n.a. (n.a. = <10% inhib. @100 μM)

# Same assay, conditions: @100 μM; read-out: r-NAAA UPLC/MS assay % inhib.
row,inhibition at 100 µM [%],SMILES
1,18,"CC1(C)NC(=O)[C@H]1NC(=O)OCCCCC1CCCCC1 [Example 86, 4-Cyclohexylbutyl-N-[(3S)-2,2-dimethyl-4-oxo-azetidin-3-yl]-carbamate]"

# Target: T2, human NAAA (Homo sapiens, UniProt Q02083)
# T2 construct: made in house; host or cells: HEK293 cells, stably transfected; soluble lysosomal fraction used as enzyme source
# T2 sequence (Q02083 29-359): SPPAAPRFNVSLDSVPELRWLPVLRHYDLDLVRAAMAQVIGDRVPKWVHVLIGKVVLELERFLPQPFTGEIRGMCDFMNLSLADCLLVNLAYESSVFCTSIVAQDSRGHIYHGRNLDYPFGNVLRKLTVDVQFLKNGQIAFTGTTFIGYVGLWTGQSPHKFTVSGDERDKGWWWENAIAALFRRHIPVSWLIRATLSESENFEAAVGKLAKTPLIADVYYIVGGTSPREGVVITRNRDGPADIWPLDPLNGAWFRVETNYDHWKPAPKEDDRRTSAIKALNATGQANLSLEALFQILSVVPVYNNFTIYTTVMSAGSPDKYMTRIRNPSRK
# Experiment: Fluorogenic h-NAAA assay
# Assay type: biochemical
# Details: not given
# Protocol: Hek293 cells stably transfected with the human NAAA coding sequence cloned from a human spleen cDNA library were used as enzyme source. Recombinant HEK-hNAAA pellets were resuspended in homogenizing buffer, and sonicated. Samples were centrifuged at 800×g for 15 min at 4° C. and the resultant supernatants were then ultracentrifuged at 12,000×g for 30 min at 4° C. The pellets were resuspended in PBS pH 7.4 on ice and subjected to a freeze/thaw cycle at −80° C. The suspension was finally centrifuged at 105,000×g for 1 h at 4° C. Protein concentration was measured and samples aliquoted and stored at −80° C. until use.
# The assay was run in Optiplate 96-wells black plates, in a total reaction volume of 200 μL. NAAA protein preparation (4.0 μg) was pre-incubated for 10 min with various concentrations of test compounds or vehicle control (5% DMSO) in 100 mM citrate/phosphate buffer (pH 4.5) containing 3.0 mM DTT, 0.1% Triton X-100, 0.05% BSA, 150 mM NaCl. N-(4-methyl-2-oxo-chromen-7-yl)-hexadecanamide was used as a substrate (5.0 μM) and the reaction carried over for 30 min at 37° C. The samples were then read in a Perkin Elmer Envision plate reader using an excitation wavelength of 360 nm and emission 460 nm. IC50 values were calculated by non-linear regression analysis of log [concentration]/inhibition curves using GraphPad Prism 5 (GraphPad Software Inc., CA—USA) applying a standard slope curve fitting.
row,IC50 [nM],SMILES
1,675,"O=C(N[C@H]1CNC1=O)OCc1ccc(-c2nc3ccccc3o2)cc1 [Example 54, [4-(1,3-Benzoxazol-2-yl)-phenyl]-methyl-N-[(3S)-2-oxoazetidin-3-yl]-carbamate]"
2,237,"O=C(N[C@H]1CNC1=O)OCc1ccc(-c2ccccc2)c(F)c1 [Example 60, (3-Fluoro-4-phenyl-phenyl)-methyl-N-[(3S)-2-oxoazetidin-3-yl]-carbamate]"
3,365,"O=C(N[C@H]1CNC1=O)OCc1ccc(-c2ccccc2F)cc1 [Example 71, [4-(2-Fluorophenyl)-phenyl]-methyl-N-[(3S)-2-oxoazetidin-3-yl]-carbamate]"
4,619,"C[C@@H]1NC(=O)[C@@H]1NC(=O)OCc1ccc(C2CCCCC2)cc1 [Example 85, (4-Cyclohexylphenyl)-methyl-N-[(2S,3R)-2-methyl-4-oxo-azetidin-3-yl]-carbamate]"
5,1230,"Cc1ccc(COC(=O)N[C@H]2CNC2=O)cc1 [Example 94, p-Tolylmethyl-N-[(3S)-2-oxoazetidin-3-yl]-carbamate]"
6,6,"C#CCCCCCCCCCOC(=O)N[C@H]1CNC1=O [Example 103, Undec-10-ynyl-N-[(3S)-2-oxoazetidin-3-yl]-carbamate]"
7,6,CCC[C@H]1CC[C@H](COC(=O)N[C@H]2CNC2=O)CC1 [Example 104]

# Same assay, conditions: @ 2.5 μM; read-out: h-NAAA Fluorogenic assay % inhib.
row,SMILES,inhibition at […] [%]
1,"O=C(N[C@H]1CNC1=O)OCc1ccc(OC2CC3CCC2C3)cc1 (mixture of isomers) [Example 102, 4-[(1R,2R,4S)- and (1S,2S,4R)-Norbornan-2-yl]-oxyphenyl]-methyl-N-[(3S)-2-oxoazetidin-3-yl]-carbamate]",95
2,"O=C(N[C@H]1CNC1=O)OCCCc1ccccc1 [Example 27, 3-Phenylpropyl-N-[(3S)-2-oxoazetidin-3-yl]-carbamate]",45
3,"O=C(N[C@H]1CNC1=O)OCCCOC1CCCCC1 [Example 50, 3-(Cyclohexoxy)-propyl-N-[(3S)-2-oxoazetidin-3-yl]-carbamate]",25
4,"O=C(N[C@H]1CNC1=O)OCc1ccc(-c2ccccc2)nc1 [Example 67, (6-Phenyl-3-pyridyl)-methyl-N-[(3S)-2-oxoazetidin-3-yl]-carbamate]",60
5,"O=C(N[C@H]1CNC1=O)OCc1ccc(C(=O)NC2CCCCC2)cc1 [Example 68, [4-(Cyclohexylcarbamoyl)-phenyl]-methyl-N-[(3S)-2-oxoazetidin-3-yl]-carbamate]",18
6,"O=C(N[C@H]1CNC1=O)OCc1ccc(C(=O)N2CCCCC2)cc1 [Example 69, [4-(Piperidine-1-carbonyl)-phenyl]-methyl-N-[(3S)-2-oxoazetidin-3-yl]-carbamate]",12
7,"O=C(N[C@H]1CNC1=O)OCc1ccc(C(=O)NCc2ccccc2)cc1 [Example 70, [4-(Benzylcarbamoyl)-phenyl]-methyl-N-[(3S)-2-oxoazetidin-3-yl]-carbamate]",40
8,"C[C@@H]1NC(=O)[C@@H]1NC(=O)OCc1ccc(-c2ccccc2)cc1 [Example 84, (4-Phenylphenyl)-methyl-N-[(2S,3R)-2-methyl-4-oxo-azetidin-3-yl]-carbamate]",18
9,"O=C(N[C@H]1CNC1=O)OCc1cnc(-c2ccccc2)nc1 [Example 98, (2-Phenylpyrimidin-5-yl)-methyl-N-[(3S)-2-oxoazetidin-3-yl]-carbamate]",26
10,"O=C(N[C@H]1CNC1=O)OCC1CCC(F)(F)CC1 [Example 99, (4,4-Difluorocyclohexyl)-methyl-N-[(3S)-2-oxoazetidin-3-yl]-carbamate]",35
11,"O=C(N[C@H]1CNC1=O)OCc1ccc(I)cc1 [Example 101, (4-Iodophenyl)-methyl-N-[(3S)-2-oxoazetidin-3-yl]-carbamate]",95

# Same assay, conditions: @ 50 μM; read-out: h-NAAA Fluorogenic assay % inhib.
row,inhibition at 50 µM [%],SMILES
1,65,"O=C(N[C@H]1CNC1=O)OCCc1ccccc1 [Example 28, Phenethyl-N-[(3S)-2-oxoazetidin-3-yl]-carbamate]"
2,55,"O=C(N[C@H]1CNC1=O)OCCCCc1cccnc1 [Example 47, 4-(3-Pyridyl)-butyl-N-[(3S)-2-oxoazetidin-3-yl]-carbamate]"

row,SMILES,inhibition at 50 µM [%]
1,"O=C(N[C@H]1CNC1=O)OCc1ccc(C(=O)N2CCOCC2)cc1 [Example 53, [4-(Morpholine-4-carbonyl)-phenyl]-methyl-N-[(3S)-2-oxoazetidin-3-yl]-carbamate]",55
